Publication PMC7332671 (Acta Pharmaceutica Sinica. B, 2020)
Like-named read-outs stand apart in the source and are kept apart here.

Key:
Assay in all cases: SPR
Format in all cases: binding
P53 [1] = target: T1, P53 (Homo sapiens, UniProt P04637)
P53 [2] = target: T1, P53; remark: listed apart in the source
P53 [3] = target: T1, P53; remark: listed apart in the source

T1 sequence (P04637 94-312): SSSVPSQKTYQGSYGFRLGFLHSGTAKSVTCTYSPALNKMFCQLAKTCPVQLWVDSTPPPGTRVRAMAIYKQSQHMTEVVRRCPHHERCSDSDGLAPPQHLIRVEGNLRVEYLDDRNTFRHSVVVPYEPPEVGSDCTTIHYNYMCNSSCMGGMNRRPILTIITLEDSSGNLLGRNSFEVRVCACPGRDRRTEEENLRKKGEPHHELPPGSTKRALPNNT

Compound | Kd (P53 [1]) [µM] | also measured
20(S)-Ro | 10.2 | 
CC(C)=CCC[C@](C)(O)[C@H]1CC[C@]2(C)[C@@H]1[C@H](O)C[C@@H]1[C@@]3(C)CC[C@H](O)C(C)(C)[C@@H]3CC[C@]12C [20(S)-PPD] | 41.1 | 
CC(C)=CCC[C@](C)(O)[C@H]1CC[C@]2(C)[C@@H]1[C@H](O)C[C@@H]1[C@@]3(C)CC[C@H](O)C(C)(C)[C@@H]3[C@@H](O)C[C@]12C [(S)-PPT, 20(S)-Protopanaxatriol] |  | Kd (P53 [2]): 6.63 µM
CCn1c2ccccc2c2cc(CNC)ccc21 [PhiKan083] |  | Kd (P53 [3]): 122 µM
